Experiments:
Experiment in all cases: Antibacterial activity, MIC by agar dilution (CLSI)
Format in all cases: cell-based
E. coli 13351 = details: Escherichia coli, 13351, E. coli 13351; compound tested alone; read-out: MIC
Method: (§1) The biological activity of representative compounds according to the invention against various bacterial strains was investigated. In a typical study, overnight grown bacterial cultures were diluted appropriately and inoculated on the agar media containing doubling dilutions of the test compounds. Observations for growth or no growth was performed after 16-20 hours of incubation at 35±2° C. in the ambient air. The overall procedure was performed as per Clinical and Laboratory Standards Institute (CLSI) recommendations, (Clinical and Laboratory Standards Institute (CLSI), Performance Standards for Antimicrobial Susceptibility Testing, 20th Informational Supplement, M07-A9, Volume 32, No. 2, 2012). Molten Mueller Hinton Agar (BD, USA) containing serial dilutions of each antibacterial agent were poured on to the plates and allowed to solidify. Appropriate suspensions from the freshly grown cultures were prepared in normal saline so that about 10^4CFU/spot of the organism was delivered on to the drug containing agar plates using automated multipoint inoculator (Mast, UK). The plates were incubated in Biochemical oxygen demand (BOD) incubator at 37° C. for 18 hours and then examined for growth.
(§2) Method for the determination of MIC: The Minimum Inhibitory Concentration (MIC) determination for the combinations was carried out in Muller Hinton Agar (MHA) (BD, USA) according to Clinical and Laboratory Standards Institute (CLSI) recommendations, (Clinical and Laboratory Standards Institute (CLSI), Performance Standards for Antimicrobial Susceptibility Testing, 20th Informational Supplement, M 100-S20, Volume 30, No. 1, 2010). In short, the test strains were adjusted to deliver about 10^4CFU per spot with a multipoint inoculator (Applied Quality Services, UK). The plates were poured with MHA containing doubling concentration range of representative compounds according to present invention. The plates were inoculated and were incubated at 35° C. for 18 hour. […] The Table 2 depicts the antibacterial activity profile of compounds according to present invention against various multidrug resistant bacterial strains.

E. coli 13352 = details: Escherichia coli, 13352, E. coli 13352; compound tested alone; read-out: MIC
Method: as §1, §2

E. coli M 49 = details: Escherichia coli, M49, E. coli M 49; compound tested alone; read-out: MIC
Method: as §1, §2

E. coli M 36 = details: Escherichia coli, M36, E. coli M 36; compound tested alone; read-out: MIC
Method: as §1, §2

K. pneumoniae H 525 = details: Klebsiella pneumoniae, H525, K. pneumoniae H 525; compound tested alone; read-out: MIC
Method: as §1, §2

[1] = system: K. pneumoniae ATCC 700603; details: Klebsiella pneumoniae, ATCC700603, compound tested alone, read-out: MIC
Method: as §1, §2

K. pneumoniae H 521 = details: Klebsiella pneumoniae, H521, K. pneumoniae H 521; compound tested alone; read-out: MIC
Method: as §1, §2

P. mirabilis S 137B = details: Proteus mirabilis, S137B, compound tested alone, read-out: MIC
Method: as §1, §2

E. coli 13353 = details: Escherichia coli, 13353, E. coli 13353; compound tested alone; read-out: MIC
Method: as §1, §2

E. coli M 50 = details: Escherichia coli, M50, E. coli M 50; compound tested alone; read-out: MIC
Method: as §1, §2

K. pneumoniae H 523 = details: Klebsiella pneumoniae, H523, K. pneumoniae H 523; compound tested alone; read-out: MIC
Method: as §1, §2

E. coli M 138 = details: Escherichia coli, M138, E. coli M 138; compound tested alone; read-out: MIC
Method: as §1, §2

K. pneumoniae H 522 = details: Klebsiella pneumoniae, H522, K. pneumoniae H 522; compound tested alone; read-out: MIC
Method: as §1, §2

E. coli H 483 = details: Escherichia coli, H483, compound tested alone, read-out: MIC
Method: as §1, §2

E. coli 7 MP = details: Escherichia coli, 7MP, compound tested alone, read-out: MIC
Method: as §1, §2

MIC (E. coli 13351) [µg/mL] | MIC (E. coli 13352) [µg/mL] | MIC (E. coli M 49) [µg/mL] | MIC (E. coli M 36) [µg/mL] | MIC (K. pneumoniae H 525) [µg/mL] | MIC [1] [µg/mL] | MIC (K. pneumoniae H 521) [µg/mL] | MIC (P. mirabilis S 137B) [µg/mL] | MIC (E. coli 13353) [µg/mL] | MIC (E. coli M 50) [µg/mL] | MIC (K. pneumoniae H 523) [µg/mL] | MIC (E. coli M 138) [µg/mL] | MIC (K. pneumoniae H 522) [µg/mL] | MIC (E. coli H 483) [µg/mL] | MIC (E. coli 7 MP) [µg/mL] | Structure (SMILES)
4 | 2 | 16 | 2 | 2 | > 32 | 4 | > 32 | 2 | 2 | 4 | 2 | 4 | > 32 | 8 | O=C(NOC[C@H]1C[C@H](n2ncnn2)CN1)[C@@H]1CC[C@@H]2CN1C(=O)N2OS(=O)(=O)O [Example 11]
4 | 2 | 16 | 2 | 4 | > 32 | 4 | > 32 | 2 | 2 | 4 | 2 | 4 | > 32 | 8 | O=C(NOC[C@H]1C[C@H](n2cnnn2)CN1)[C@@H]1CC[C@@H]2CN1C(=O)N2OS(=O)(=O)O [Example 12]
4 | 4 | 8 | 2 | 4 | > 32 | 4 | > 32 | 2 | 2 | 4 | 2 | 4 | > 32 | 4 | O=C(NOC[C@H]1C[C@H](n2ccnn2)CN1)[C@@H]1CC[C@@H]2CN1C(=O)N2OS(=O)(=O)O [Example 14]

Continued, molecule first:

Structure (SMILES) | MIC (E. coli 13351) [µg/mL] | MIC (E. coli 13352) [µg/mL] | MIC (E. coli M 49) [µg/mL] | MIC (E. coli M 36) [µg/mL] | MIC (K. pneumoniae H 525) [µg/mL] | MIC [1] [µg/mL] | MIC (K. pneumoniae H 521) [µg/mL] | MIC (P. mirabilis S 137B) [µg/mL] | MIC (E. coli 13353) [µg/mL] | MIC (E. coli M 50) [µg/mL] | MIC (K. pneumoniae H 523) [µg/mL] | MIC (E. coli M 138) [µg/mL] | MIC (K. pneumoniae H 522) [µg/mL] | MIC (E. coli H 483) [µg/mL] | MIC (E. coli 7 MP) [µg/mL]
O=C(NOC[C@@H]1C[C@H](n2ccnc2)CN1)[C@@H]1CC[C@@H]2CN1C(=O)N2OS(=O)(=O)O [Example 10] | 2 | 2 | 4 | 1 | 2 | > 32 | 2 | > 32 | 1 | 1 | 2 | 1 | 2 | > 32 | 4
O=C(NOC[C@H]1C[C@H](n2nccn2)CN1)[C@@H]1CC[C@@H]2CN1C(=O)N2OS(=O)(=O)O [Example 13] | 2 | 2 | 8 | 1 | 2 | > 32 | 2 | > 32 | 1 | 2 | 2 | 1 | 2 | > 32 | 4
Nc1cn([C@@H]2CN[C@H](CONC(=O)[C@@H]3CC[C@@H]4CN3C(=O)N4OS(=O)(=O)O)C2)cn1 [Example 16] | 2 | 2 | 8 | 2 | 4 | > 32 | 4 | > 32 | 2 | 2 | 4 | 2 | 4 | > 32 | 8

From patent US10501464B2, “7-oxo-6-(sulfooxy)-1,6-diazabicyclo[3.2.1]octane-2-carboxamide containing compounds and their use in treating bacterial infections” (WOCKHARDT LIMITED, priority 2015, dated 2019)
